From patent publication US20240350481A1, “USE OF N-MYRISTOYL TRANSFERASE (NMT) INHIBITORS IN THE TREATMENT OF CANCER, AUTOIMMUNE DISORDERS, AND INFLAMMATORY DISORDERS” (PACYLEX PHARMACEUTICALS INC., priority 2020, published 2024)

Legend:
EGFP-N-Ras = experiment: Palmitoylation of EGFP-N-Ras in COS-7 cells; assay type: cell-based; details: 10 μM
Experimental: The cells pre-treated with inhibitors were then labelled for 4 hrs with 100 μM Alkyne-C16. EGFP-tagged constructs were immunoprecipitated as described and reacted with azido-biotin using click chemistry. Biotinylated-palmitoylated proteins were detected using neutravidin-HRP conjugate and ECL. […] All western blots shown are representative of three independent experiments.

[1] = Toxicology in DOHH2 xenograft mice; details: for Reticulocyte % / Absolute Basophil cells / Absolute Eosinophil cells / Absolute Monocyte cells / Absolute Neutrophil cells / Absolute Lymphocyte cells / WBC / MPV / RBC / Hemoglobin / RDW % / MCH / MCHC / Hematocrit % / MCV / Platelets: DOHH2 xenograft; for Absolute Basophil cells / Absolute Eosinophil cells: normal [0-0.2]; for Absolute Monocyte cells: normal [0-0.4]; for Absolute Neutrophil cells: normal [0.1-2.4]; for Absolute Lymphocyte cells: normal [0.9-9.3]; for WBC: normal [1.8-10.7]; for MPV: normal [5-20]; for RBC: normal [6.36-9.42]; for Hemoglobin: normal [11-15.1]; for RDW %: normal [12.4-27]; for MCH: normal [14.1-19.3]; for MCHC: normal [30.2-34.2]; for Hematocrit %: normal [35.1-45.4]; for MCV: normal [45.4-60.3]; for Platelets: normal [592-2972]
Experimental: Mice were observed daily for clinical signs of toxicity and effects on body weight. After the last dose, three mice/group were euthanized and necropsied. At euthanasia, blood samples were taken for hematology analyses and to measure AST and CK activities and bilirubin and creatinine concentrations. At necropsy, samples of samples of femur, both kidneys, liver, small intestine, and injection site were taken and fixed.
The dose volume was 10 mL/kg. At the end of the two-to three-week dosing period, mice were euthanized and three/group were necropsied. Mice that died or were euthanized early for humane reasons also were necropsied. In life, mice were monitored regularly and weighed daily, and tumors were measured with digital Vernier calipers (Mitutoyo) every other day. Tumor volume was calculated as length (mm)×width (mm)2/2; length and width were the longest and shortest diameters, respectively. At euthanasia, at the end of the dosing period blood samples were taken for hematology analyses and clinical chemistry analyses that included AST and CK activities and bilirubin and creatinine concentrations (plus ALT activity and BUN concentration in the Jackson Laboratory study). At necropsy, samples of femur, both kidneys, liver, small intestine, and injection site were collected and fixed. These were subsequently processed and examined by light microscopy for histopathologic findings. Also at necropsy, the tumors were removed and divided in two. One piece was fixed in 10% neutral buffered formalin for 24 h at room temperature and embedded in paraffin; the other was snap frozen for RNA and protein analysis. Tumor growth inhibition (TGI) for all xenograft experiments was calculated following the formula:

For `Cc1c(N[S+](=O)([O-])c2c(Cl)cc(-c3ccnc(N4CCNCC4)c3)cc2Cl)c(CC(C)C)nn1C` [PCLX-001], the “palmitoylation of EGFP-N-Ras” value (EGFP-N-Ras) was “does not inhibit”, the “neutrophil and monocyte counts” value ([1]; 50 mg/kg daily) was “lower than normal in all three mice” and the RBC counts ([1]; 50 mg/kg every other day) was “lower than normal in all three mice”. The “femoral bone marrow histopathology” value ([1]; 50 mg/kg groups) was “no histopathologic findings”, the Reticulocyte % ([1]; PCLX-001 10 mg/kg/day) was 8.08 ± 1.58% and the “Absolute Basophil cells” value ([1]; PCLX-001 10 mg/kg/day) was 0.01 ± 0 K/ul. For the same molecule, the “Absolute Eosinophil cells” value ([1]; PCLX-001 10 mg/kg/day) was 0.05 ± 0.02 K/ul, the “Absolute Monocyte cells” value ([1]; PCLX-001 10 mg/kg/day) was 0.52 ± 0.06 K/ul and the “Absolute Neutrophil cells” value ([1]; PCLX-001 10 mg/kg/day) was 4.89 ± 0.34 K/ul. For the same molecule, the “Absolute Lymphocyte cells” value ([1]; PCLX-001 10 mg/kg/day) was 0.83 ± ? .19 K/ul, the WBC ([1]; PCLX-001 10 mg/kg/day) was 6.3 ± 0.12 K/ul and the MPV ([1]; PCLX-001 10 mg/kg/day) was 6.77 ± 0.18 fL. The RBC ([1]; PCLX-001 10 mg/kg/day) was 9.45 ± 0.1 M/ul, the Hemoglobin ([1]; PCLX-001 10 mg/kg/day) was 14.13 ± 0.18 g/dL and the RDW % ([1]; PCLX-001 10 mg/kg/day) was 25.97 ± 0.46%. It also gave an MCH ([1]; PCLX-001 10 mg/kg/day) of 14.93 ± 0.03 pg, an MCHC ([1]; PCLX-001 10 mg/kg/day) of 32.73 ± 0.07 g/dL and a Hematocrit % ([1]; PCLX-001 10 mg/kg/day) of 43.2 ± 0.61%. The MCV ([1]; PCLX-001 10 mg/kg/day) was 45.7 ± 0.2 fL, the Platelets ([1]; PCLX-001 10 mg/kg/day) was 1490 ± 91.31 K/uL and the Reticulocyte % ([1]; PCLX-001 20 mg/kg/day) was 7.21 ± 0.49%. For the same molecule, the “Absolute Basophil cells” value ([1]; PCLX-001 20 mg/kg/day) was 0.01 ± 0 K/ul, the “Absolute Eosinophil cells” value ([1]; PCLX-001 20 mg/kg/day) was 0.02 ± 0.01 K/ul and the “Absolute Neutrophil cells” value ([1]; PCLX-001 20 mg/kg/day) was 3.94 ± 0.94 K/ul. For the same molecule, the “Absolute Lymphocyte cells” value ([1]; PCLX-001 20 mg/kg/day) was 0.84 ± ? .15 K/ul, the WBC ([1]; PCLX-001 20 mg/kg/day) was 5.41 ± 1.05 K/ul and the MPV ([1]; PCLX-001 20 mg/kg/day) was 7.63 ± 0.23 fL. For the same molecule, the RBC ([1]; PCLX-001 20 mg/kg/day) was 9.03 ± 0.32 M/ul, the Hemoglobin ([1]; PCLX-001 20 mg/kg/day) was 13.97 ± 0.44 g/dL and the RDW % ([1]; PCLX-001 20 mg/kg/day) was 25.13 ± 0.65%. For the same molecule, the MCH ([1]; PCLX-001 20 mg/kg/day) was 15.43 ± 0.3 pg, the MCHC ([1]; PCLX-001 20 mg/kg/day) was 33.03 ± 0.22 g/dL and the Hematocrit % ([1]; PCLX-001 20 mg/kg/day) was 42.33 ± 1.48%. The MCV ([1]; PCLX-001 20 mg/kg/day) was 46.9 ± 0.65 fL, the Platelets ([1]; PCLX-001 20 mg/kg/day) was 1234.7 ± 38.49 K/uL and the Reticulocyte % ([1]; PCLX-001 50 mg/kg/day) was 6.7 ± 0.3%. For the same molecule, the Reticulocyte % ([1]; PCLX-001 50 mg/kg/day Interm.) was 13.28 ± 6.74%, the “Absolute Basophil cells” value ([1]; PCLX-001 50 mg/kg/day Interm.) was 0 ± 0 K/ul and the “Absolute Eosinophil cells” value ([1]; PCLX-001 50 mg/kg/day Interm.) was 0.05 ± 0.03 K/ul. For the same molecule, the “Absolute Monocyte cells” value ([1]; PCLX-001 50 mg/kg/day Interm.) was 0.91 ± 0.14 K/ul, the “Absolute Lymphocyte cells” value ([1]; PCLX-001 50 mg/kg/day Interm.) was 1.51 ± 0.47 K/ul and the WBC ([1]; PCLX-001 50 mg/kg/day Interm.) was 5.94 ± 1.19 K/ul. It also gave an MPV ([1]; PCLX-001 50 mg/kg/day Interm.) of 7.17 ± 0.09 fL, an RBC ([1]; PCLX-001 50 mg/kg/day Interm.) of 8.07 ± 0.12 M/ul and a Hemoglobin ([1]; PCLX-001 50 mg/kg/day Interm.) of 12.6 ± 0.15 g/dL. It also gave an RDW % ([1]; PCLX-001 50 mg/kg/day Interm.) of 27.2 ± 1.82%, an MCH ([1]; PCLX-001 50 mg/kg/day Interm.) of 15.63 ± 0.12 pg and an MCHC ([1]; PCLX-001 50 mg/kg/day Interm.) of 31.90 ± 1.01 g/dL. For the same molecule, the Hematocrit % ([1]; PCLX-001 50 mg/kg/day Interm.) was 39.53 ± 0.84%, the MCV ([1]; PCLX-001 50 mg/kg/day Interm.) was 49.07 ± 1.72 fL and the Platelets ([1]; PCLX-001 50 mg/kg/day Interm.) was 1673.7 ± 309.81 K/uL. For the same molecule, the “Absolute Basophil cells” value ([1]; PCLX-001 50 mg/kg/day) was 0 ± 0 K/ul, the “Absolute Eosinophil cells” value ([1]; PCLX-001 50 mg/kg/day) was 0.01 ± 0.01 K/ul and the “Absolute Monocyte cells” value ([1]; PCLX-001 50 mg/kg/day) was 0.19 ± 0.06 K/ul. The “Absolute Neutrophil cells” value ([1]; PCLX-001 50 mg/kg/day) was 1.45 ± 0.22 K/ul, the “Absolute Lymphocyte cells” value ([1]; PCLX-001 50 mg/kg/day) was 0.23 ± 0.06 K/ul and the WBC ([1]; PCLX-001 50 mg/kg/day) was 1.89 ± 0.31 K/ul. For the same molecule, the MPV ([1]; PCLX-001 50 mg/kg/day) was 7 ± 0.3 fL and the RBC ([1]; PCLX-001 50 mg/kg/day) was 9.3 ± 0.17 M/ul.
